Source: patent publication US20230381321A1, “CAMPTOTHECIN CONJUGATES” (priority 2022, published 2023)
Read-outs that look alike come from different tables or passages of the source.

Key:
Type in all cases: cell-based
[1] = In vitro potency (CellTiter-Glo, 96 h) on Ls174T; details: Homo sapiens, LS174T, read-out: Ls174T IC50
Outline: (§1)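 Cells authenticated by STR profiling and used within 2 months of resuscitation are seeded in RPMI 1640 containing 20% FBS for 24 hours; […] dilutions in medium are added and incubation runs 4 days before a luminescence read.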

[2] = test system: pancreatic cancer cells (BxPC3); test: In vitro potency (CellTiter-Glo, 96 h) on BxPC3; details: Homo sapiens, BXPC-3, 96 h, read-out: BxPC3 IC50
Outline: as §1

[3] = test system: non-small-cell lung cancer cells (Calu1); test: In vitro potency (CellTiter-Glo, 96 h) on Calu1; details: Homo sapiens, Calu-1, 96 h, read-out: Calu1 IC50
Method: (§2) In vitro potency was assessed on multiple cancer cell lines. All cell lines were authenticated by STR profiling at IDEXX Bioresearch and cultured for no more than 2 months after resuscitation. Cells cultured in log-phase growth were seeded for 24 hours in 96-well plates containing […] RPMI 1640 supplemented with 20% FBS. Serial dilutions of antibody-drug conjugates in cell culture media were prepared at 4x working concentrations, and 50 μL of each dilution was added to the 96-well plates. Following addition of test articles, cells were incubated with test articles for 4 days at […]. After 96 hours, growth inhibition was assessed by CellTiterGlo® (Promega, Madison, WI) and luminescence was measured on a plate reader.
(§3) Cell viability was determined by CellTiter-Glo staining after 96h exposure to ADC. ND=Not Determined. In the following tables, “Ex_” refers to a drug linker number. For example, “Ag4-Ex_4a” refers to a conjugate of an Ag4 antibody with drug linker 4a.

melanoma cells (A2058) = test: In vitro potency (CellTiter-Glo, 96 h) on A2058; details: Homo sapiens, A2058, 96 h, read-out: A2058 IC50
Method: as §2, §3

[4] = test system: renal carcinoma cells (786-O); test: In vitro potency (CellTiter-Glo, 96 h) on 786-O; details: Homo sapiens, 786-0, 96 h, read-out: 786-O IC50
Outline: as §1

[5] = test system: anaplastic large cell lymphoma cells (Karpas299); test: In vitro potency (CellTiter-Glo, 96 h) on Karpas299; details: Homo sapiens, KARPAS-299, 96 h, read-out: Karpas299 IC50
Outline: as §1

[6] = test system: Hodgkin's lymphoma cells (L540cy); test: In vitro potency (CellTiter-Glo, 96 h) on L540cy; details: L540cy, 96 h, read-out: L540cy IC50
Outline: as §1

[7] = test system: breast cancer cells (MDA-MB-231); test: In vitro potency (CellTiter-Glo, 96 h) on MDA-MB-231; details: Homo sapiens, MDA-MB-231, 96 h, read-out: MDAMB 231 IC50
Outline: as §1

[8] = test system: acute myeloid leukemia cells (MOLM-13); test: In vitro potency (CellTiter-Glo, 96 h) on MOLM-13; details: Homo sapiens, MOLM-13, 96 h, read-out: MOLM-13 IC50
Outline: as §1

[9] = test system: anaplastic large cell lymphoma cells (DELBVR); test: In vitro potency (CellTiter-Glo, 96 h) on DELBVR; details: 96 h, read-out: DELBVR IC50
Outline: as §1

[10] = test system: anaplastic large cell lymphoma cells (DEL); test: In vitro potency (CellTiter-Glo, 96 h) on DEL; details: 96 h, read-out: DEL IC50
Outline: as §1

[11] = test system: B-lymphocyte cancer cells (SU-DHL4); test: In vitro potency (CellTiter-Glo, 96 h) on SU-DHL4; details: Homo sapiens, SU-DHL-4, 96 h, read-out: SU-DHL-4 IC50
Outline: as §1

[12] = CPT free drugs, CellTiter-Glo after 96 h exposure

Row | SMILES | IC50 [1, 12] [nM] | IC50 [2, 12] [nM] | IC50 [3, 12] [nM] | IC50 (melanoma cells (A2058); [12]) [nM] | IC50 [4, 12] [nM] | IC50 [5, 12] [nM] | IC50 [6, 12] [nM] | IC50 [7, 12] [nM] | IC50 [8, 12] [nM] | IC50 [9, 12] [nM] | IC50 [10, 12] [nM] | IC50 [11, 12] [nM] | further results
1 | CC[C@@]1(O)C(=O)OCc2c1cc1n(c2=O)Cc2c-1nc1cc(F)c(C)c(C3=CCCC3)c1c2CN [Compound 6c] | 18 | 5 | 15 | 5 | 4 | 3 | 3 | 7 | 4 | 2 | 1 | 2 | –
2 | CC[C@@]1(O)C(=O)OCc2c1cc1n(c2=O)Cc2c-1nc1cc(F)c3c(c1c2CN)CCC3 [Compound 2as] | 2 | 5 | 4 | 3 | 3 | 3 | 1 | 1 | 51 | 1 | 1 | 2 | –
3 | CC[C@@]1(O)C(=O)OCc2c1cc1n(c2=O)Cc2c-1nc1cc(F)c(C)c(-c3ccccc3)c1c2CN [Compound 6j] | 12 | 30 | 36 | 10 | 12 | 9 | 9 | 103 | 15 | 5 | 4 | 14 | –
4 | CC[C@@]1(O)C(=O)OCc2c1cc1n(c2=O)Cc2c-1nc1cc(F)c(C)c(C=C(C)C)c1c2CN [Compound 6, (S)-11-(aminomethyl)-4-ethyl-8-fluoro-4-hydroxy-9-methyl-10-(2-methylprop-1-en-1-yl)-1,12-dihydro-14H-pyrano[3′,4′:6,7]indolizino[1,2-b]quinoline-3,14(4H)-dione] | – | – | – | – | – | – | – | – | – | – | – | – | IC50 ([1]; 96 h): 21 nM; IC50 [2]: 8 nM; IC50 [3]: 17 nM; IC50 (melanoma cells (A2058)): 5 nM; IC50 [4]: 5 nM; IC50 [5]: 4 nM; IC50 [6]: 4 nM; IC50 [7]: 7 nM; IC50 [8]: 4 nM; IC50 [9]: 3 nM; IC50 [10]: 1 nM; IC50 [11]: 2 nM
5 | CC[C@@]1(O)C(=O)OCc2c1cc1n(c2=O)Cc2c-1nc1ccc(SC)c(F)c1c2CN [Compound 2au] | 2 | 6 | 7 | 3 | 4 | 5 | 1 | 1 | 40 | 1 | 1 | 2 | –
6 | CC[C@@]1(O)C(=O)OCc2c1cc1n(c2=O)Cc2c-1nc1ccc3c(c1c2CN)COC3 [Compound 2aq] | 12 | 27 | 1 | 18 | 11 | 7 | 4 | 12 | 39 | 3 | 2 | 5 | –
7 | CC[C@@]1(O)C(=O)OCc2c1cc1n(c2=O)Cc2c-1nc1cc(F)c(C)c(-c3cccc(O)c3)c1c2CN [Compound 6i] | 10 | 10 | 26 | 2 | 5 | 4 | 3 | 11 | 2 | 1 | 1 | 2 | –
8 | CC[C@@]1(O)C(=O)OCc2c1cc1n(c2=O)Cc2c-1nc1cc(F)c(C)c(-c3ccsc3)c1c2CN [Compound 6g] | 14 | 7 | 25 | 4 | 6 | 4 | 4 | 12 | 6 | 1 | 1 | 2 | –
9 | CC[C@@]1(O)C(=O)OCc2c1cc1n(c2=O)Cc2c-1nc1cc3c(cc1c2Cn1cnc(CO)c1)OCO3 [Compound 7aj] | – | – | – | – | – | – | – | – | – | – | – | – | IC50 ([1]; 96 h): 64 nM; IC50 [2]: 103 nM; IC50 [3]: > 1000 nM; IC50 (melanoma cells (A2058)): 57 nM; IC50 [4]: 99 nM; IC50 [5]: 55 nM; IC50 [6]: 56 nM; IC50 [7]: 706 nM; IC50 [8]: 81 nM; IC50 [9]: 16 nM; IC50 [10]: 14 nM; IC50 [11]: 34 nM
